What was measured:
[1] = tested on: caffeine-induced wakefulness mice; experiment: Caffeine-induced wakefulness mouse model: sleep latency, sleep duration, number falling asleep; type: in vivo; conditions: caffeine-induced wake mouse; caffeine alone or + test article (20 mg theanine/kg)
Description: Animals and Experimental design: Seven male BALB/c mice per treatment arm (age: 8 weeks, weight: […]) were housed in a controlled environment with a 12:12-h light-dark cycle at 22° C. and were provided with mice chow and water ad libitum. All experiments were conducted under the National Institutes of Health's Guidelines for the Care and Use of Laboratory Animals and approved by the Ethics Committee of the Medipol University.
Drugs and materials: Study product was provided by Nutrition21 LLC (Mg-Theanate #1=lot AA209-122-20, Mg-Theanate #2=lot BLS-DN 13). […] The concentration of each drug solution was adjusted so that the volume injected was constant at 1.0 ml/kg BW. All drug solutions were prepared fresh daily, and were administered intraperitoneally (i.p.). […]

[2] = tested on: brain serotonin, dopamine and melatonin; experiment: Brain neurotransmitter levels by ELISA in caffeine-induced wakefulness mice; type: in vivo; conditions: for Dopamine / Melatonin / Serotonin: brain, caffeine followed by saline (C) or test article (20 mg theanine/kg), ELISA, means and standard deviations
MDA, SOD, CAT, GSHPx = experiment: Brain antioxidant status in caffeine-induced wakefulness mice; type: in vivo; conditions: for CAT / GSHPx / SOD / MDA: caffeine followed by saline (C) or test article (20 mg theanine/kg), means and standard deviations
Description: Animals were anesthetized with urethane ([…], i.p., Sigma U2500). Body temperature was maintained between 36.5 and 37° C. with homeothermic blanket. Mice were stabilized under a stereotaxic frame (World Precision Instruments, Berlin; Germany) and an incision was made on the skin along the anterior/posterior line of the skull. The left […] was removed gently with a dental drill (Marothon-3; Korea). Two Ag-AgCl sphere electrodes were placed over the left hemisphere with the reference electrode attached on the pinna. […] Brains were rapidly removed, frozen on dry ice and stored at -80° C. until analyses could be performed. Biochemical and Oxidative Stress Markers-Serum melatonin, serotonin, and dopamine were measured using ELISA kits. Brain levels of malondialdehyde (MDA) were measured by HPLC. Brain activities of superoxide dismutase (SOD), catalase (CAT) and glutathione peroxidase (GSHPx) were measured using ELISA kits for each analyte.

wakefulness = conditions: 7.5 mg/kg i.p.; Kwon et al., 2006; cited from earlier work
[3] = Ates et al. [2]; comparison in words; cited from earlier work
[4] = 500 mg magnesium daily, 8 weeks, cited from earlier work
[5] = caffeine-induced wake mouse, result in words

| Molecule | Dopamine [2] | Melatonin [2] | Serotonin [2] | CAT (MDA, SOD, CAT, GSHPx) | SOD (MDA, SOD, CAT, GSHPx) | Absorption (and bioavailability) of magnesium [3] | other results |
| --- | --- | --- | --- | --- | --- | --- | --- |
| Cn1c(=O)c2c(ncn2C)n(C)c1=O [C, Caffeine, reference compound] | 584.86 + 72.47d ng/g | 0.59 + 0.05a pg/g | 571.00 + 42.14d ng/g | 24.40 + 1.62a IU/mg protein | 89.00 + 5.16a IU/mg protein |  | Number of animals falling asleep (share of the group that fell asleep) [1]: Caffeine: only 50% of the group fell asleep; Sleep latency period [1]: Caffeine: The sleep latency period doubled to about 2 minutes in caffeine-treated animals.; Neurotransmitter levels (brain serotonin, dopamine, and melatonin) [2, 5]: Caffeine: Levels of all three neurotransmitters were significantly reduced, reflecting the; GSHPx (MDA, SOD, CAT, GSHPx): 12.07 + 2.89b IU/mg protein; Level of MDA (indicator of oxidative stress) (MDA, SOD, CAT, GSHPx; [5]): Caffeine: The level of MDA (an indicator of oxidative stress) was significantly increased,; Time for which wakefulness is maintained (wakefulness): at least 2 h |
| CCNC(=O)CCC(N)C(=O)O [CMgT1, magnesium di-L-theanate] | 832.71 + 74.50bc ng/g | 0.80 + 0.03b pg/g | 762.29 + 25.34b ng/g | 36.47 + 1.27b IU/mg protein | 131.14 + 9.86b IU/mg protein |  | MDA (MDA, SOD, CAT, GSHPx): 2.24 + 0.14c nmol/g |
| CCNC(=O)CCC(N)C(=O)O [CMgT2, magnesium di-L-theanate] | 895.57 + 61.93ab ng/g | 0.85 + 0.04b pg/g | 751.43 + 30.34b ng/g | 35.96 + 2.52b IU/mg protein | 137.29 + 5.99b IU/mg protein |  | GSHPx (MDA, SOD, CAT, GSHPx): 19.11 + 2.39ab IU/mg protein; MDA (MDA, SOD, CAT, GSHPx): 2.24 + 0.09c nmol/g |
| O=C([O-])CC(O)C(=O)[O-].[Mg+2] (stereo not drawn) [magnesium malate] |  |  |  |  |  | more poorly absorbed than certain magnesium complexes with amino acids |  |
| [Mg+2] [magnesium] |  |  |  |  |  |  | Concentration of serum renin vs placebo ([4]; P<0.001): statistically significant increases; Sleep time vs placebo ([4]; P=0.002): statistically significant increases; Concentration of melatonin vs placebo ([4]; P=0.007): statistically significant increases; Sleep efficiency vs placebo ([4]; P=0.03): statistically significant increases; Early morning wakening time [4]: shortened; Insomnia Severity Index scores ([4]; subjective measure): improved |
| magnesium acetyl taurate |  |  |  |  |  | significantly better absorption and bioavailability than magnesium glycinate |  |
| magnesium citrate |  |  |  |  |  | more poorly absorbed than certain magnesium complexes with amino acids |  |
